System: Wheat and Barley and test plant species
Test: Post-emergent Test III, herbicidal activity in wheat and barley (Table 17; visual injury, GR20/GR50/GR80/GR90)
Type: in vivo
Settings: 21 d; for Visual Growth Reduction (%) 21 Days After Application, CIRAR / Visual Growth Reduction (%) 21 Days After Application, GALAP / Visual Growth Reduction (%) 21 Days After Application, HORVS / Visual Growth Reduction (%) 21 Days After Application, KCHSC / Visual Growth Reduction (%) 21 Days After Application, LAMPU / Visual Growth Reduction (%) 21 Days After Application, MATCH / Visual Growth Reduction (%) 21 Days After Application, PAPRH / Visual Growth Reduction (%) 21 Days After Application, SASKR / Visual Growth Reduction (%) 21 Days After Application, SINAR / Visual Growth Reduction (%) 21 Days After Application, TRZAS / Visual Growth Reduction (%) 21 Days After Application, VERPE / Visual Growth Reduction (%) 21 Days After Application, VIOTR: post-emergent
How it was run: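 Greenhouse-grown plants at second to third true leaf stage (about 18/17° C day/night, 14 h photoperiod) sprayed post-emergence with compound in acetone/DMSO/water-based mix with Agri-Dex crop oil and X-77 surfactant at 187 L/ha, at highest rate and 1/2× to 1/16× dilutions. Visual injury scored 0–100% versus untreated plants after 21 d; GR20/GR50/GR80/GR90 from probit analysis.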

COC(=O)c1nc(-c2ccc3cc[nH]c3c2F)cc(N)c1Cl [Compound 1.23, Methyl 4-amino-3-chloro-6-(7-fluoro-1H-indol-6-yl)picolinate]
Visual Growth Reduction (%) 21 Days After Application, CIRAR (CIRAR, 17.5 g ai/ha): G (0-29) | Visual Growth Reduction (%) 21 Days After Application, CIRAR (CIRAR, 35 g ai/ha): G (0-29) | Visual Growth Reduction (%) 21 Days After Application, CIRAR (CIRAR, 70 g ai/ha): G (0-29) | GR50, CIRAR (CIRAR, dose for 50 percent growth reduction, probit analysis): >140 g ai/ha | GR80, CIRAR (CIRAR, dose for 80 percent growth reduction, probit analysis): >140 g ai/ha | GR90, CIRAR (CIRAR, dose for 90 percent growth reduction, probit analysis): >140 g ai/ha | Visual Growth Reduction (%) 21 Days After Application, GALAP (GALAP, 17.5 g ai/ha): A (95-100) | Visual Growth Reduction (%) 21 Days After Application, GALAP (GALAP, 35 g ai/ha): A (95-100) | Visual Growth Reduction (%) 21 Days After Application, GALAP (GALAP, 70 g ai/ha): A (95-100) | GR50, GALAP (GALAP, dose for 50 percent growth reduction, probit analysis): 1 g ai/ha | GR80, GALAP (GALAP, dose for 80 percent growth reduction, probit analysis): 4 g ai/ha | GR90, GALAP (GALAP, dose for 90 percent growth reduction, probit analysis): 7 g ai/ha | Visual Growth Reduction (%) 21 Days After Application, HORVS (HORVS, 17.5 g ai/ha): G (0-29) | Visual Growth Reduction (%) 21 Days After Application, HORVS (HORVS, 35 g ai/ha): G (0-29) | Visual Growth Reduction (%) 21 Days After Application, HORVS (HORVS, 70 g ai/ha): G (0-29) | GR20, HORVS (HORVS, dose for 20 percent growth reduction, probit analysis): >140 g ai/ha | Visual Growth Reduction (%) 21 Days After Application, KCHSC (KCHSC, 17.5 g ai/ha): F (30-44) | Visual Growth Reduction (%) 21 Days After Application, KCHSC (KCHSC, 35 g ai/ha): E (45-59) | Visual Growth Reduction (%) 21 Days After Application, KCHSC (KCHSC, 70 g ai/ha): D (60-74) | GR50, KCHSC (KCHSC, dose for 50 percent growth reduction, probit analysis): 35 g ai/ha | GR80, KCHSC (KCHSC, dose for 80 percent growth reduction, probit analysis): 110 g ai/ha | GR90, KCHSC (KCHSC, dose for 90 percent growth reduction, probit analysis): >140 g ai/ha | Visual Growth Reduction (%) 21 Days After Application, LAMPU (LAMPU, 17.5 g ai/ha): B (85-94) | Visual Growth Reduction (%) 21 Days After Application, LAMPU (LAMPU, 35 g ai/ha): A (95-100) | Visual Growth Reduction (%) 21 Days After Application, LAMPU (LAMPU, 70 g ai/ha): A (95-100) | GR50, LAMPU (LAMPU, dose for 50 percent growth reduction, probit analysis): 3 g ai/ha | GR80, LAMPU (LAMPU, dose for 80 percent growth reduction, probit analysis): 6 g ai/ha | GR90, LAMPU (LAMPU, dose for 90 percent growth reduction, probit analysis): 9 g ai/ha | Visual Growth Reduction (%) 21 Days After Application, MATCH (17.5 g ai/ha): G (0-29) | Visual Growth Reduction (%) 21 Days After Application, MATCH (35 g ai/ha): G (0-29) | Visual Growth Reduction (%) 21 Days After Application, MATCH (70 g ai/ha): G (0-29) | Visual Growth Reduction (%) 21 Days After Application, PAPRH (PAPRH, 17.5 g ai/ha): D (60-74) | Visual Growth Reduction (%) 21 Days After Application, PAPRH (PAPRH, 35 g ai/ha): A (95-100) | Visual Growth Reduction (%) 21 Days After Application, PAPRH (PAPRH, 70 g ai/ha): A (95-100) | GR50, PAPRH (PAPRH, dose for 50 percent growth reduction, probit analysis): 11 g ai/ha | GR80, PAPRH (PAPRH, dose for 80 percent growth reduction, probit analysis): 17 g ai/ha | GR90, PAPRH (PAPRH, dose for 90 percent growth reduction, probit analysis): 22 g ai/ha | Visual Growth Reduction (%) 21 Days After Application, SASKR (SASKR, 17.5 g ai/ha): F (30-44) | Visual Growth Reduction (%) 21 Days After Application, SASKR (SASKR, 35 g ai/ha): E (45-59) | Visual Growth Reduction (%) 21 Days After Application, SASKR (SASKR, 70 g ai/ha): C (75-84) | GR50, SASKR (SASKR, dose for 50 percent growth reduction, probit analysis): 29 g ai/ha | GR80, SASKR (SASKR, dose for 80 percent growth reduction, probit analysis): 90 g ai/ha | GR90, SASKR (SASKR, dose for 90 percent growth reduction, probit analysis): >140 g ai/ha | Visual Growth Reduction (%) 21 Days After Application, SINAR (SINAR, 17.5 g ai/ha): C (75-84) | Visual Growth Reduction (%) 21 Days After Application, SINAR (SINAR, 35 g ai/ha): C (75-84) | Visual Growth Reduction (%) 21 Days After Application, SINAR (SINAR, 70 g ai/ha): A (95-100) | GR50, SINAR (SINAR, dose for 50 percent growth reduction, probit analysis): 3 g ai/ha | GR80, SINAR (SINAR, dose for 80 percent growth reduction, probit analysis): 14 g ai/ha | GR90, SINAR (SINAR, dose for 90 percent growth reduction, probit analysis): 32 g ai/ha | Visual Growth Reduction (%) 21 Days After Application, TRZAS (TRZAS, 17.5 g ai/ha): G (0-29) | Visual Growth Reduction (%) 21 Days After Application, TRZAS (TRZAS, 35 g ai/ha): G (0-29) | Visual Growth Reduction (%) 21 Days After Application, TRZAS (TRZAS, 70 g ai/ha): G (0-29) | GR20, TRZAS (TRZAS, dose for 20 percent growth reduction, probit analysis): 66 g ai/ha | Visual Growth Reduction (%) 21 Days After Application, VERPE (VERPE, 17.5 g ai/ha): B (85-94) | Visual Growth Reduction (%) 21 Days After Application, VERPE (VERPE, 35 g ai/ha): B (85-94) | Visual Growth Reduction (%) 21 Days After Application, VERPE (VERPE, 70 g ai/ha): A (95-100) | GR50, VERPE (VERPE, dose for 50 percent growth reduction, probit analysis): 1 g ai/ha | GR80, VERPE (VERPE, dose for 80 percent growth reduction, probit analysis): 8 g ai/ha | GR90, VERPE (VERPE, dose for 90 percent growth reduction, probit analysis): 21 g ai/ha | Visual Growth Reduction (%) 21 Days After Application, VIOTR (VIOTR, 17.5 g ai/ha): G (0-29) | Visual Growth Reduction (%) 21 Days After Application, VIOTR (VIOTR, 35 g ai/ha): E (45-59) | Visual Growth Reduction (%) 21 Days After Application, VIOTR (VIOTR, 70 g ai/ha): D (60-74) | GR50, VIOTR (VIOTR, dose for 50 percent growth reduction, probit analysis): 44 g ai/ha | GR80, VIOTR (VIOTR, dose for 80 percent growth reduction, probit analysis): 119 g ai/ha | GR90, VIOTR (VIOTR, dose for 90 percent growth reduction, probit analysis): >140 g ai/ha
